# Source: EP4790046A1, “NOVEL COMPOUND DERIVED FROM MYRISTICA FRAGRANS, AND ANTICANCER COMPOSITION COMPRISING SAME” (Korea Institute of Science and Technology, priority 2023, dated 2025)
# How the values were obtained:
# [1] = system: SW48 cells; test: Apoptosis, Annexin V-FITC/PI staining, flow cytometry, SW48; assay type: cell-based; details: for Apoptosis distribution (%), Q1 / Apoptosis distribution (%), Q2 / Apoptosis distribution (%), Q3 / Apoptosis distribution (%), Q4: 20 hours; for Apoptosis distribution (%), Q2: Annexin V-FITC+/PI+ (late apoptosis and cell death); for Apoptosis distribution (%), Q3: Annexin V-FITC+/PI- (early apoptosis); for Apoptosis distribution (%), Q4: Annexin V-FITC-/PI- (healthy population)
# Procedure: (§1) 23132/87 and SW48 cells were seeded at densities of 5 × 10^5 and 7 × 10^5 cells/well in a 6-well plate and cultured for 24 hours. […] After treatment, cells were harvested and stained using the Annexin V-FITC Early Apoptosis Detection Kit (6592, Cell Signaling Technology, USA). Flow cytometry (BD FACSVerse Cell Analyzer and FlowJo software, BD Biosciences, USA) was applied to analyze the samples based on 10,000 events.
# (§2) Student's t-test was performed for statistical analysis between the 2 concentrations of the same compound.
# [2] = system: 23132/87 cells; test: Apoptosis, Annexin V-FITC/PI staining, flow cytometry, 23132/87; assay type: cell-based; details: for Apoptosis distribution (%), Q2: Annexin V-FITC+/PI+ (late apoptosis and cell death); for Apoptosis distribution (%), Q3: Annexin V-FITC+/PI- (early apoptosis); for Apoptosis distribution (%), Q4: Annexin V-FITC-/PI- (healthy population)
# Procedure: as §1, §2
# [3] = system: various cancer cell lines; test: alamarBlue cell viability, statements across the cell line panel
# Procedure: AGS, SW48, HepG2, and MiaPaCa-2 was purchased from ATCC (American Type Culture Collection, USA), SNU cell lines from the Korean Cell Line Bank (KCLB, Korea), and 23132/87 from the Leibniz Institute DSMZ - German Collection of Microorganisms and Cell Cultures GmbH (DSMZ, Germany). All cell lines were cultured in RPMI-1640 medium (HyClone, USA) supplemented with 10% FBS (Gibco, USA) and 1% penicillin-streptomycin (HyClone, USA) under conditions of 5% CO2, 37°C.
# Cells were seeded at a density of 5 × 10^3cells/well in a 96-well plate for 24 hours, then treated with the compound at an appropriate concentration (10 µM) for 48 hours. After treatment, alamarBlue reagent was added at a volume ratio of 1/10 of the treatment volume and incubated for 4 hours in a 37°C cell incubator (protected from direct light). Cell viability was then determined by measuring absorbance values at 570 nm and 600 nm using a microplate reader. The anticancer effects of candidate compounds were evaluated by assessing the cell viability (%) of cells treated at specific concentrations and the half-maximal inhibitory concentration (IC50) of each natural product. Doxorubicin and oxaliplatin were used as positive controls for gastric and colorectal cancer, respectively.
# Statistical analysis was performed using R software (version 4.2.2) (R Core Team). Differences between groups were assessed using student's t-test or 1-way ANOVA followed by post-hoc Tukey HSD test. A p-value < 0.05 was considered statistically significant.
# Further, to measure the IC50 values against six cancer cell lines.
smiles,measurement,setting,value
"C=CCc1cc(OC)c(O[C@H](C)[C@H](c2ccc(O)c(OC)c2)c2ccc(O)c(C(=O)CCCCCCCCc3ccc(O)cc3)c2O)c(OC)c1 [Compound 3, Myricone C]","Apoptosis distribution (%), Q1","[1]; SW48, 5 µM",7.41%
same,"Apoptosis distribution (%), Q2","[1]; SW48, 5 µM",13.80%
same,"Apoptosis distribution (%), Q3","[1]; SW48, 5 µM",13.73%
same,"Apoptosis distribution (%), Q4","[1]; SW48, 5 µM",65.10%
same,"Apoptosis distribution (%), Q1","[1]; SW48, 10 µM",4.97%
same,"Apoptosis distribution (%), Q2","[1]; SW48, 10 µM",22.43%
same,"Apoptosis distribution (%), Q3","[1]; SW48, 10 µM",18.77%
same,"Apoptosis distribution (%), Q4","[1]; SW48, 10 µM",53.87%
same,Q2 ratio,"[1]; SW48, 5 µM",13.80% ± 0.65%
same,Q3 ratio,"[1]; SW48, 5 µM",13.73% ± 0.92%
same,"increase in the Q2 population, dose-based comparison","[1]; SW48, 5 µM to 10 µM",over 8%
same,Q2 (Annexin V-FITC+/PI+),"[1]; SW48, 10 µM",22.43% ± 0.30%
same,Q2 increase compared to the control,"[1]; SW48, 10 µM",over 8%
same,Q3 ratio,"[1]; SW48, 10 µM",18.77% ± 1.07%
same,Q4 distribution reduction compared to the control group,"[1]; SW48, 10 µM",9.43%
same,apoptotic and dead cell population (Q2 and Q3) increase over DMSO,"[1]; SW48, 10 µM",~10%
same,Q4 ratio reduction on changing the concentration,"[1]; SW48, from 5 µM to 10 µM",approximately 11.23%
same,"Apoptosis distribution (%), Q2","[2]; 23132/87, 5 µM, 20 hours",9.35%
same,"Apoptosis distribution (%), Q3","[2]; 23132/87, 5 µM, 20 hours",5.76%
same,"Apoptosis distribution (%), Q4","[2]; 23132/87, 5 µM, 20 hours",81.57%
same,"Apoptosis distribution (%), Q2","[2]; 23132/87, 10 µM, 20 hours",10.47%
same,"Apoptosis distribution (%), Q3","[2]; 23132/87, 10 µM, 20 hours",10.97%
same,"Apoptosis distribution (%), Q4","[2]; 23132/87, 10 µM, 20 hours",75.00%
same,Q3 population,"[2]; 23132/87, 5 µM",5.76% ± 0.35%
same,"Apoptosis distribution (%), Q1","[2]; 23132/87, 5 µM, 20 hours",3.30%
same,Q3 ratio compared with DMSO control,"[2]; 23132/87, 5 µM, 20 hours",significantly increased
same,Q3 population,"[2]; 23132/87, 10 µM",10.97% ± 0.12%
same,Q4 distribution reduction compared to the control group,"[2]; 23132/87, 10 µM",8.27%
same,"Apoptosis distribution (%), Q1","[2]; 23132/87, 10 µM, 20 hours",3.59%
same,Q2 ratio increase compared with DMSO control,"[2]; 23132/87, 10 µM, 20 hours",about 2%
same,Q3 ratio increase compared with DMSO control,"[2]; 23132/87, 10 µM, 20 hours",~6%
same,Q2 and Q3 with increasing concentrations,"[2]; 23132/87, 5 to 10 µM",significantly increased
same,anticancer activity (comparison of IC50 values among compounds),"[3]; six cancer cell lines, 2.5-40 µM",strongest anticancer activity
same,anticancer activity,[3]; various cancer cell lines,high anticancer activity
